No end group written: not given here.
Assays:
QRFPR = settings: cited from earlier work
Description: cDNA encoding the precursor or orthologue of 26RFa is detected in vertebrates, from fish[16], and phasianidae, to mammals. In humans, 26RFa and its N-terminal extended mature peptide 43RFa are extracted from the human brain, and mRNA of QRFPR is detected in the hypothalamus, vestibular nuclei, and other areas of the central nervous system. QRFPR is also detected in some peripheral organs[18],[19]. Both 26RFa and 43RFa are endogenous ligands for QRFPR (GPR103)[4],[18]. The amino acid sequences of 26RFa are conserved among mammalian species, with 26RFa from rats being slightly mor ... || Considerable efforts have been dedicated to elucidating the recognition mechanism of 26RFa by QRFPR. […] This segment served as a molecular scaffold for the development of low molecular weight peptides with enhanced potency and increased stability[21],[28]. […] Globally, the 26RFa segment (Gly20–Phe24) leans to TM2, but is far from TMs 5–7, leaving a large portion of unoccupied space lined by TMs 5–7 (Fig. 3a). Two glycines (Gly20, Gly21) are compactly packed into a crevice composed of residues on ECL1, ECL2, and the N-terminus (Fig. 3a). They moderately impact 26RFa activity, as substit ... || (+ 2 further places)

KISS1R (WT) = molecular target: T1, KISS1R (WT) (Homo sapiens, UniProt Q969F8); test: KP-10-induced calcium mobilization, wild-type receptor; type: cell-based; settings: HEK293, Fluo-4, mean ± S.E.M., n ≥ 3
T1 construct: expressed in transfected cells; host or cells: HEK293, transient transfection by electroporation
T1 sequence (Q969F8 whole entry, species assumed): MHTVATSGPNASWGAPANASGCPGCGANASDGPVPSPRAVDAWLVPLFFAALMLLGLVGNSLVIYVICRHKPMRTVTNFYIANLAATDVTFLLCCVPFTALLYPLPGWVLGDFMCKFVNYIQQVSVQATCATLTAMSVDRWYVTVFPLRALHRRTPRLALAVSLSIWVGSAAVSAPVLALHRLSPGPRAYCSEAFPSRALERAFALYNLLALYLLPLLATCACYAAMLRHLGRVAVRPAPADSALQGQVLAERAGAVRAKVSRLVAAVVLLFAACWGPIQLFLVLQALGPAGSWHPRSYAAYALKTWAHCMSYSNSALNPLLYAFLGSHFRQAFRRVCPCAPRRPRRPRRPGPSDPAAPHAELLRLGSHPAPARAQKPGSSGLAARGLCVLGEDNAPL

KISS1R mutants = molecular target: T2, KISS1R mutants (Homo sapiens, UniProt Q969F8, E193A/H309A/Q122A); test: KP-10-induced calcium mobilization, receptor mutants; type: cell-based; settings: HEK293, Fluo-4, mean ± S.E.M., n ≥ 3
T2 construct: expressed in transfected cells; host or cells: HEK293, transient transfection by electroporation
T2 sequence (Q969F8 whole entry Q122A/E193A/H309A): as the sequence (Q969F8 whole entry, species assumed) above, with Q122A, E193A, H309A counted along it

NPY1R and NPY4R = settings: cited from earlier work; for role of hydrogen bond of Tyr36 with Q^5.46 in activity: NPY1R and NPY4R
Description: Specifically, Arg25 and Arg35 in 26RFa and NPY/PP are exposed to a conserved polar environment that includes residues E^45.52, T^5.39, and D/E^6.59 in QRFPR and NPYRs. However, subtle differences exist in the special binding interactions between these arginines and conserved polar residues (Fig. 4d–f). Side chains of Arg35 in NPY/PP form a conserved salt bridge with D^6.59 and a hydrogen bond with T^5.39 (NPY1R and NPY4R) or a salt bridge with E^45.52 (NPY2R) (Fig. 4e, f). In 26RFa, Arg25 retains its salt bridge with E203^45.52 but fails to build a salt bridge with E297^6.59 (Fig. 3b). It is p ... || Phe26 in 26RFa and Tyr36 in NPY/PP show distinct binding characteristics for QRFRP and NPYRs, respectively. […] (Fig. 4e). However, in NPY2R, this hydrogen bond is absent due to the substitution of glutamine with leucine at position 5.46, which lacks a hydrogen bond donor (Fig. 4c, f). Similarly, QRFPR also has a leucine at position 5.46, which cannot form a corresponding hydrogen bond with Phe26 in 26RFa. Furthermore, in contrast to the notable impact of Q^5.46 on the NP ...

PrRPR (WT) = molecular target: T3, PrRPR (WT) (Homo sapiens, UniProt P49683); test: PrRP-20-induced calcium mobilization, wild-type receptor; type: cell-based; settings: HEK293, Fluo-4, mean ± S.E.M., n ≥ 3
T3 construct: expressed in transfected cells; host or cells: HEK293, transient transfection by electroporation
T3 sequence (P49683 whole entry, species assumed): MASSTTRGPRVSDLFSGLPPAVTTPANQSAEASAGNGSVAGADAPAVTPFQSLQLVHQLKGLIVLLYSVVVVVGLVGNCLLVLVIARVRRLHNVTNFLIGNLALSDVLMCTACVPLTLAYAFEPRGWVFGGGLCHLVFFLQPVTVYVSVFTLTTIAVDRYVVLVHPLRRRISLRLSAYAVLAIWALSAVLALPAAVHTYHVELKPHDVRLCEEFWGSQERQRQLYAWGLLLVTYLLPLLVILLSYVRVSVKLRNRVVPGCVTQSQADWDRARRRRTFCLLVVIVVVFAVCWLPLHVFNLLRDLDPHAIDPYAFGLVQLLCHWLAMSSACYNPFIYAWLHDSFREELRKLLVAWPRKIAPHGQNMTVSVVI
Procedure: (§1) The gene encoding the WT QRFPR, PrPRR, KISS1R, NPFF1R, or NPFF2R was subcloned into the pcDNA3.0 vector with the addition of an N-terminal HA tag. All of the mutations used for functional studies were generated by QuickChange PCR and verified by DNA sequencing.
(§2) HEK293 cells were obtained from ATCC (Manassas, VA, USA) and cultured in DMEM supplemented with 10% (v/v) FBS, 100 mg/L penicillin, and 100 mg/L streptomycin in 5% CO2 at 37 °C. For transient transfection, ~2.5 × 10^6 cells were mixed with 2 µg plasmids in 200 µL transfection buffer, and electroporation was carried out with a Scientz-2C electroporation apparatus (Scientz Biotech, Ningbo, China). The experiments were carried out 24 h after transfection.
For QRFPR, PrRPR, and KISS1R, HEK293 cells transfected with WT receptor or its mutants were seeded at a density of 4 × 10^4 per well into 96-well culture plates and incubated for 24 h at 37 °C in 5% CO2. […] After washing, cells were added with 50 μL HBSS and incubated at room temperature for 10 min, then 25 μL agonist buffer was dispensed into the well using a FlexStation III microplate reader (Molecular Devices), and intracellular calcium change was recorded at an excitation wavelength of 485 nm and an emission wavelength of 525 nm. EC50 and Emax values for each curve were calculated by Prism 8.0 software (GraphPad Software).

PrRPR mutants = molecular target: T4, PrRPR mutants (Homo sapiens, UniProt P49683, D302A/E213A/H321A/Q141A); test: PrRP-20-induced calcium mobilization, receptor mutants; type: cell-based; settings: HEK293, Fluo-4, mean ± S.E.M., n ≥ 3
T4 construct: expressed in transfected cells; host or cells: HEK293, transient transfection by electroporation
T4 sequence (P49683 1-370 Q141A/E213A/D302A/H321A): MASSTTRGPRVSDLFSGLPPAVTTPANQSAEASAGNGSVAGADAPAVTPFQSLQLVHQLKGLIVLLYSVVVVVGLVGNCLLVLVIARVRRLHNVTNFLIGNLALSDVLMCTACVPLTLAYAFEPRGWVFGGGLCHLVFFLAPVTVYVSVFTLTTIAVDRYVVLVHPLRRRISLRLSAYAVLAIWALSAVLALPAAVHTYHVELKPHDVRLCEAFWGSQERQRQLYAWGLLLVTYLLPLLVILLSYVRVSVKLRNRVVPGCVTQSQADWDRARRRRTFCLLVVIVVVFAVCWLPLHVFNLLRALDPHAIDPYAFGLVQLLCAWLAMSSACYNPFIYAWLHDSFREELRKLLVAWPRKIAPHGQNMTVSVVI
Procedure: as §1, §2
For QRFPR, PrRPR, and KISS1R, HEK293 cells transfected with WT receptor or its mutants were seeded at a density of 4 × 10^4 per well into 96-well culture plates and incubated for 24 h at 37 °C in 5% CO2. For NPFF1R and NPFF2R, plasmids were transfected into HEK293 cells stably expressing Gα16. On the next day, cells were incubated with 2 μmol/L Fluo-4 AM in HBSS supplemented with 5.6 mmol/L D-glucose and 250 μmol/L sulfinpyrazone at 37 °C for 45 min. After washing, cells were added with 50 μL HBSS and incubated at room temperature for 10 min, then 25 μL agonist buffer was dispensed into the well using a FlexStation III microplate reader (Molecular Devices), and intracellular calcium change was recorded at an excitation wavelength of 485 nm and an emission wavelength of 525 nm. EC50 and Emax values for each curve were calculated by Prism 8.0 software (GraphPad Software).

In the case of “26RFa (1–18): N-terminal segment of native 26RFa lacking the C-terminal octapeptide (QDEGSEATGFLPAAGEKT; QRF-amide; UniProt P83859 91-108, looked up, fragment)”, the “ability to activate the receptor” value (QRFPR; 26RFa (1–18), lacks the C-terminal octapeptide) is given as “loses its ability to activate the receptor”.
In the case of “26RFa from rats: 26RFa from rats; rat 26RFa (GenScript) used for the complex”, the “potency, rat vs human 26RFa” value (QRFPR; calcium mobilization) is listed as “slightly more potent than that from humans”.
With `CC(C)C[C@H](NC(=O)CNC(=O)[C@H](Cc1ccccc1)NC(=O)[C@H](CO)NC(=O)[C@H](CC(N)=O)NC(=O)[C@H](Cc1c[nH]c2ccccc12)NC(=O)[C@H](CC(N)=O)NC(=O)[C@@H](N)Cc1ccc(O)cc1)C(=O)N[C@@H](CCCNC(=N)N)C(=O)N[C@@H](Cc1ccccc1)C(N)=O` [KP-10] the EC50 (KISS1R (WT)) was 4.27 nM, the Emax (KISS1R (WT)) was 100 ± 1.2% and the Emax (KISS1R mutants; HEK293, KISS1R E193^45.52A) was 126 ± 6.2%. For the same compound, the Emax (KISS1R mutants; HEK293, KISS1R H309^7.39A) was 89.6 ± 1%, the Emax (KISS1R mutants; HEK293, KISS1R Q122^3.32A) was 12.8 ± 0.76% and the EC50 (KISS1R mutants; KISS1R E193^45.52A) was 10 nM. It also gave an EC50 (KISS1R mutants; KISS1R H309^7.39A) of 17.4 nM and an EC50 (KISS1R mutants; KISS1R Q122^3.32A) of 5.13 nM.
For Neuropeptide Y [NPY], the “role of hydrogen bond of Tyr36 with Q^5.46 in activity” value (NPY1R and NPY4R) is given as “crucial for NPY/PP activity” and the “role of amide-surrounding residues (C^2.57, T^2.61, Q^3.32, Q/H^7.39) in activity” value (NPY1R and NPY4R) is given as “critical for 26RFa and NPY/PP activities”.
Work on “TPDINPAWYASRGIRPVGRF-NH2 [PrRP-20, prolactin-releasing peptide]” yielded an EC50 (PrRPR (WT)) of 1.1 nM, an Emax (PrRPR (WT)) of 100 ± 3.9% and an Emax (PrRPR mutants; HEK293, PrRPR D302^6.59A) of 124 ± 8.9%. The Emax (PrRPR mutants; HEK293, PrRPR E213^45.52A) was 27.7 ± 0.37%, the Emax (PrRPR mutants; HEK293, PrRPR H321^7.39A) was 19.7 ± 0.75% and the Emax (PrRPR mutants; HEK293, PrRPR Q141^3.32A) was 49.2 ± 1.2%. For the same compound, the EC50 (PrRPR mutants; PrRPR D302^6.59A) was 11.2 nM, the EC50 (PrRPR mutants; PrRPR E213^45.52A) was 115 nM and the EC50 (PrRPR mutants; PrRPR H321^7.39A) was 14.8 nM. It also gave an EC50 (PrRPR mutants; PrRPR Q141^3.32A) of 1.05 nM.
In the case of pancreatic polypeptide [PP], the “role of hydrogen bond of Tyr36 with Q^5.46 in activity” value (NPY1R and NPY4R) is given as “crucial for NPY/PP activity” and the “role of amide-surrounding residues (C^2.57, T^2.61, Q^3.32, Q/H^7.39) in activity” value (NPY1R and NPY4R) is given as “critical for 26RFa and NPY/PP activities”.

— article PMC11148045, “Structural basis for recognition of 26RFa by the pyroglutamylated RFamide peptide receptor” (Cell Discovery, 2024)
